This experiment has as its system BDF1 mice, P388 leukemia ip, median survival T/C. As to the kind of experiment: NCI In Vivo Anticancer Drug Screen. Data for tumor model P388 Leukemia (intraperitoneal) in B6D2F1 (BDF1) mice. The following applies: endpoint: median survival time, higher = longer survival. The procedure, abridged:
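Each value expresses how treatment altered survival: treated-mouse outcome over vehicle-mouse outcome, both groups bearing the transplanted tumour.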

The mark [1] stands for this setting: dose: 25.0 mg/kg/injection, schedule: Q01DX009 (ip), vehicle: saline.
Where [2] appears, read: dose: 50.0 mg/kg/injection, schedule: Q01DX009 (ip), vehicle: Klucel (hydroxypropylcellulose) (HPC).
[3] abbreviates: dose: 100.0 mg/kg/injection, schedule: Q01DX009 (ip), vehicle: Klucel (hydroxypropylcellulose) (HPC).
The mark [4] stands for this setting: dose: 12.5 mg/kg/injection, schedule: Q01DX009 (ip), vehicle: saline with Tween-80.
Setting [5] is: dose: 50.0 mg/kg/injection, schedule: Q01DX009 (ip), vehicle: saline with Tween-80.
Where [6] appears, read: dose: 200.0 mg/kg/injection, schedule: Q01DX009 (ip), vehicle: Klucel (hydroxypropylcellulose) (HPC).
Setting [7] is: dose: 100.0 mg/kg/injection, schedule: Q01DX009 (ip), vehicle: saline with Tween-80.
The mark [8] stands for this setting: dose: 200.0 mg/kg/injection, schedule: Q01DX009 (ip), vehicle: saline with Tween-80.
Setting [9] is: dose: 100.0 mg/kg/injection, schedule: Q04DX003 (ip), vehicle: saline with Tween-80.
Where [10] appears, read: dose: 200.0 mg/kg/injection, schedule: Q04DX003 (ip), vehicle: saline with Tween-80.
Setting [11] is: dose: 400.0 mg/kg/injection, schedule: Q04DX003 (ip), vehicle: saline with Tween-80.

Several values for one entry are separate records, joined by “and”; a condition that tells them apart may be missing. Identical values can stand only once. Inconclusive results and toxic doses are left out.

As to `S=c1cc(-c2ccc(Cl)cc2)ss1`, the T/C by setting is: under setting [1], 123 % of control; (dose: 50.0 mg/kg/injection, schedule: Q01DX009 (ip), vehicle: saline) 101 % of control; (dose: 100.0 mg/kg/injection, schedule: Q01DX009 (ip), vehicle: saline) 107 % of control; (dose: 100.0 mg/kg/injection, schedule: Q04DX003 (ip), vehicle: saline) 107 % of control; (dose: 200.0 mg/kg/injection, schedule: Q01DX009 (ip), vehicle: saline) 107 % of control; (dose: 200.0 mg/kg/injection, schedule: Q04DX003 (ip), vehicle: saline) 110 % of control. For the same molecule, the T/C (dose: 400.0 mg/kg/injection, schedule: Q01DX009 (ip), vehicle: saline) is 123 % of control and the T/C (dose: 400.0 mg/kg/injection, schedule: Q04DX003 (ip), vehicle: saline) is 100 % of control.

`COC1OC(COS(=O)(=O)c2ccc(C)cc2)C2OC(C)(C)OC12` (stereo not drawn): the T/C reads like this: under setting [2], 104 % of control; under setting [3], 90 % of control; (dose: 400.0 mg/kg/injection, schedule: Q01DX009 (ip), vehicle: Klucel (hydroxypropylcellulose) (HPC)) 90 % of control.

In the case of `CN(C)C1CCc2[nH]c3c(F)cc(F)cc3c2C1` (stereo not drawn), the T/C reads like this: (dose: 3.13 mg/kg/injection, schedule: Q01DX009 (ip), vehicle: saline with Tween-80) 95 % of control; (dose: 6.25 mg/kg/injection, schedule: Q01DX009 (ip), vehicle: saline with Tween-80) 103 % of control; under setting [4], 101 % of control.

On to `Nc1nnc[se]1`, for which the T/C reads like this: under setting [4], 116 % of control; (dose: 12.5 mg/kg/injection, schedule: Q01DX009 (ip), vehicle: saline) 96 % of control; (dose: 25.0 mg/kg/injection, schedule: Q01DX009 (ip), vehicle: saline with Tween-80) 151 % of control; under setting [1], 122 % of control; under setting [5], 164 % of control and 178 % of control.

As to `CCCCCCCCCCCCCCCCCS(=O)S(=O)O` (stereo not drawn), the T/C was 116 % of control (dose: 89.0 mg/kg/injection, schedule: Q01DX009 (ip), vehicle: saline with Tween-80); 116 % of control under setting [3]; 109 % of control (dose: 132.0 mg/kg/injection, schedule: Q01DX009 (ip), vehicle: Klucel (hydroxypropylcellulose) (HPC)); 119 % of control under setting [6]; 122 % of control (dose: 300.0 mg/kg/injection, schedule: Q01DX009 (ip), vehicle: Klucel (hydroxypropylcellulose) (HPC)).

For the molecule `N#C/C(=C\c1ccncc1)c1ccccc1`, the T/C by setting is: under setting [4], 92 % of control; under setting [5], 98 % of control; under setting [7], 112 % of control; under setting [8], 98 % of control.

Consider `CCOCc1c(COc2ccc(OC)cc2)n(CC#CCOc2ccc(OC)cc2)c2ccc(Br)cc12`, for which the T/C runs as follows: under setting [5], 101 % of control; under setting [7], 93 % of control; under setting [8], 98 % of control.

Take `Nc1ncnc2[nH]ncc12`: the T/C was 90 % of control (dose: 1.5 mg/kg/injection, schedule: Q01DX010 (ip), vehicle: saline); 104 % of control and 115 % of control (dose: 3.0 mg/kg/injection, schedule: Q01DX010 (ip), vehicle: saline); 100 % of control (dose: 6.0 mg/kg/injection, schedule: Q01DX010 (ip), vehicle: saline); 109 % of control and 110 % of control (dose: 12.0 mg/kg/injection, schedule: Q01DX010 (ip), vehicle: saline).

`c1ccc(C2C3(c4ccccc4)C4(c5ccccc5)OC(c5ccccc5)(c5ccccc54)C23c2ccccc2)cc1` (stereo not drawn): the T/C was 91 % of control under setting [2], 103 % of control under setting [3] and 92 % of control under setting [6].

With `CCO/C=C(\C#N)C(=O)O`, the T/C is 88 % of control under setting [9]; 111 % of control under setting [8]; 88 % of control under setting [10]; 119 % of control (dose: 400.0 mg/kg/injection, schedule: Q01DX009 (ip), vehicle: saline with Tween-80); 92 % of control under setting [11].

As for `Cc1cc(Cl)ccc1NC(=O)N1c2ccccc2SC12CCCC2`, the T/C runs as follows: under setting [5], 97 % of control; under setting [7], 91 % of control; under setting [8], 104 % of control.

In the case of `COc1c(Br)cc(N=Cc2ccc(N(CCCl)CCCl)cc2C)cc1Br`, the T/C (dose: 88.0 mg/kg/injection, schedule: Q01DX010 (ip), vehicle: carboxymethylcellulose (CMC)) was 115 % of control; the T/C (dose: 133.0 mg/kg/injection, schedule: Q01DX010 (ip), vehicle: carboxymethylcellulose (CMC)) is 155 % of control; the T/C (dose: 200.0 mg/kg/injection, schedule: Q01DX010 (ip), vehicle: carboxymethylcellulose (CMC)) was 165 % of control; the T/C (dose: 300.0 mg/kg/injection, schedule: Q01DX010 (ip), vehicle: carboxymethylcellulose (CMC)) was 215 % of control.

Turning to `COC(=O)c1cccc(OP(=O)(N(C)C)N(C)C)c1`, the T/C is, setting by setting: under setting [5], 106 % of control; under setting [7], 114 % of control.

On to `O=C(NCCNCc1ccccc1)c1ccccc1`, for which the T/C is 96 % of control (dose: 12.5 mg/kg/injection, schedule: Q01DX009 (ip), vehicle: water); 92 % of control (dose: 12.5 mg/kg/injection, schedule: Q04DX003 (ip), vehicle: water); 100 % of control (dose: 16.0 mg/kg/injection, schedule: Q01DX009 (ip), vehicle: water); 99 % of control and 122 % of control (dose: 25.0 mg/kg/injection, schedule: Q01DX009 (ip), vehicle: water); 95 % of control and 99 % of control (dose: 25.0 mg/kg/injection, schedule: Q04DX003 (ip), vehicle: water); 113 % of control (dose: 40.0 mg/kg/injection, schedule: Q01DX009 (ip), vehicle: water). In addition, the T/C is, setting by setting: (dose: 50.0 mg/kg/injection, schedule: Q01DX009 (ip), vehicle: water) 103 % of control; (dose: 50.0 mg/kg/injection, schedule: Q04DX003 (ip), vehicle: water) 97 % of control; (dose: 100.0 mg/kg/injection, schedule: Q01DX009 (ip), vehicle: water) 90 % of control; (dose: 100.0 mg/kg/injection, schedule: Q04DX003 (ip), vehicle: water) 95 % of control and 99 % of control.

For `O=C1CN(c2ccccc2)CC(=O)N2C(c3ccccc3)CCCN12` (stereo not drawn), the T/C was 113 % of control (dose: 50.0 mg/kg/injection, schedule: Q01DX005 (ip), vehicle: saline with Tween-80); 97 % of control (dose: 100.0 mg/kg/injection, schedule: Q01DX005 (ip), vehicle: saline with Tween-80); 97 % of control (dose: 200.0 mg/kg/injection, schedule: Q01DX005 (ip), vehicle: saline with Tween-80).

For the molecule `CCC[N+]12C(O)C(CC)C3CC1C1N(C)c4ccc(Br)cc4C14CC2C3C4O` (stereo not drawn), the T/C was 102 % of control under setting [5] and 105 % of control under setting [7].

For `OC1CC2CC1C(Cl)C2Cl` (stereo not drawn), the T/C reads like this: under setting [5], 113 % of control; under setting [7], 96 % of control; under setting [8], 98 % of control.

Turning to `Oc1cccc2cccnc12.[Cu+].[O-]c1cccc2cccnc12`, the T/C (dose: 1.87 mg/kg/injection, schedule: Q01DX009 (ip), vehicle: saline) is 104 % of control; the T/C (dose: 2.75 mg/kg/injection, schedule: Q04DX003 (ip), vehicle: saline) was 90 % of control; the T/C (dose: 3.75 mg/kg/injection, schedule: Q01DX009 (ip), vehicle: saline) was 100 % of control; the T/C (dose: 5.5 mg/kg/injection, schedule: Q04DX003 (ip), vehicle: saline) was 100 % of control; the T/C (dose: 11.0 mg/kg/injection, schedule: Q04DX003 (ip), vehicle: saline) was 113 % of control; the T/C (dose: 16.0 mg/kg/injection, schedule: Q04DX003 (ip), vehicle: saline) was 100 % of control. Under “dose: 25.0 mg/kg/injection, schedule: Q04DX003 (ip), vehicle: saline”, the T/C is 100 % of control.

Take `Cc1ccc(S(=O)(=O)Oc2cc([N+](=O)[O-])ccc2N)cc1`: the T/C (dose: 100.0 mg/kg/injection, schedule: Q01DX001 (ip), vehicle: saline) was 109 % of control; the T/C (dose: 200.0 mg/kg/injection, schedule: Q01DX001 (ip), vehicle: saline) is 100 % of control; the T/C (dose: 400.0 mg/kg/injection, schedule: Q01DX001 (ip), vehicle: saline) is 104 % of control.

On to `O=C(COc1ccccc1[N+](=O)[O-])Nc1cccnc1`, for which the T/C runs as follows: under setting [9], 100 % of control; under setting [10], 95 % of control; under setting [11], 100 % of control.

(Values after PubChem BioAssay AID328 (DTP/NCI, 2004).)
